Measurements as given in ChEMBL document CHEMBL3885881, “DrugMatrix”.

Species: Rattus norvegicus
Assay: DrugMatrix - Regimen: Daily Repeat
Type: toxicity, organism-based, Sprague-Dawley
Parameters: regimen Daily Repeat, gender Male, age 6-8 weeks
Settings: in vivo, po, route oral GAVAGE, vehicle 100 % WATER; for ABSOLUTE BASOPHIL / ABSOLUTE EOSINOPHIL / ABSOLUTE LYMPHOCYTE / ABSOLUTE MONOCYTE / ABSOLUTE SEGMENTED NEUTROPHIL / BASOPHIL / EOSINOPHIL / ERYTHROCYTE COUNT / HEMATOCRIT / HEMOGLOBIN / LEUKOCYTE COUNT / LYMPHOCYTE / MEAN CORPUSCULAR HEMOGLOBIN / MEAN CORPUSCULAR HEMOGLOBIN CONCENTRATION / MEAN CORPUSCULAR VOLUME / MONOCYTE / NEUTROPHIL / NUCLEATED RED BLOOD CELLS / PLATELET COUNT: tissue Blood; for ALANINE AMINOTRANSFERASE / ALBUMIN / ALKALINE PHOSPHATASE / ASPARTATE AMINOTRANSFERASE / BLOOD UREA NITROGEN / CARBON DIOXIDE / CHLORIDE / CHOLESTEROL / CREATINE PHOSPHOKINASE / CREATININE / GLUCOSE / LACTATE DEHYDROGENASE / LIPASE / PHOSPHORUS / POTASSIUM / SODIUM / TOTAL BILIRUBIN / TOTAL PROTEIN / URIC ACID: tissue Plasma
[1] = 15 mg/kg, 120 h, dose level Low, time 5 day
[2] = 79 mg/kg, 72 h, dose level High, time 3 day
[3] = 79 mg/kg, 120 h, dose level High, time 5 day

NNC(=O)c1ccncc1 [ISONIAZID]
ABSOLUTE BASOPHIL [1]: 0 CELLS/uL | ABSOLUTE EOSINOPHIL [1]: 0 CELLS/uL | ABSOLUTE LYMPHOCYTE [1]: 13245.33 CELLS/uL | ABSOLUTE MONOCYTE [1]: 507 CELLS/uL | ABSOLUTE SEGMENTED NEUTROPHIL [1]: 1614.33 CELLS/uL | BASOPHIL [1]: 0% | EOSINOPHIL [1]: 0% | ERYTHROCYTE COUNT [1]: 5.42 x10E6/uL | HEMATOCRIT [1]: 33.8% | HEMOGLOBIN [1]: 12.8 G/DL | LEUKOCYTE COUNT [1]: 15.37 x10E3/uL | LYMPHOCYTE [1]: 85% | MEAN CORPUSCULAR HEMOGLOBIN [1]: 23.67 pg | MEAN CORPUSCULAR HEMOGLOBIN CONCENTRATION [1]: 37.9 G/DL | MEAN CORPUSCULAR VOLUME [1]: 62.47 fL | MONOCYTE [1]: 3.33% | NEUTROPHIL [1]: 11.67% | NUCLEATED RED BLOOD CELLS [1]: 0 /100WBC | PLATELET COUNT [1]: 1239.67 x10E3/uL | ALANINE AMINOTRANSFERASE [1]: 47 u/L | ALBUMIN [1]: 4.33 G/DL | ALKALINE PHOSPHATASE [1]: 384.67 u/L | ASPARTATE AMINOTRANSFERASE [1]: 85 u/L | BLOOD UREA NITROGEN [1]: 16.67 mg/dL | CARBON DIOXIDE [1]: 23.67 mmol/L | CHLORIDE [1]: 102.67 MEQ/L | CHOLESTEROL [1]: 76 mg/dL | CREATINE PHOSPHOKINASE [1]: 246.67 u/L | CREATININE [1]: 0.47 mg/dL | GLUCOSE [1]: 188.33 mg/dL | LACTATE DEHYDROGENASE [1]: 93.67 u/L | LIPASE [1]: 11 u/L | PHOSPHORUS [1]: 11.47 mg/dL | POTASSIUM [1]: 5.97 MEQ/L | SODIUM [1]: 146 MEQ/L | TOTAL BILIRUBIN [1]: 0.23 mg/dL | TOTAL PROTEIN [1]: 6.3 G/DL | URIC ACID [1]: 2.17 mg/dL | ABSOLUTE BASOPHIL [2]: 0 CELLS/uL | ABSOLUTE EOSINOPHIL [2]: 46.33 CELLS/uL | ABSOLUTE LYMPHOCYTE [2]: 10642.67 CELLS/uL | ABSOLUTE MONOCYTE [2]: 65.33 CELLS/uL | ABSOLUTE SEGMENTED NEUTROPHIL [2]: 779 CELLS/uL | BASOPHIL [2]: 0% | EOSINOPHIL [2]: 0.33% | ERYTHROCYTE COUNT [2]: 6 x10E6/uL | HEMATOCRIT [2]: 38.67% | HEMOGLOBIN [2]: 14.03 G/DL | LEUKOCYTE COUNT [2]: 11.53 x10E3/uL | LYMPHOCYTE [2]: 91.67% | MEAN CORPUSCULAR HEMOGLOBIN [2]: 23.4 pg | MEAN CORPUSCULAR HEMOGLOBIN CONCENTRATION [2]: 36.3 G/DL | MEAN CORPUSCULAR VOLUME [2]: 64.47 fL | MONOCYTE [2]: 0.67% | NEUTROPHIL [2]: 7.33% | NUCLEATED RED BLOOD CELLS [2]: 0 /100WBC | PLATELET COUNT [2]: 1065.67 x10E3/uL | ALANINE AMINOTRANSFERASE [2]: 19 u/L | ALBUMIN [2]: 4.9 G/DL | ALKALINE PHOSPHATASE [2]: 349 u/L | ASPARTATE AMINOTRANSFERASE [2]: 74.33 u/L | BLOOD UREA NITROGEN [2]: 22.67 mg/dL | CARBON DIOXIDE [2]: 25.67 mmol/L | CHLORIDE [2]: 101.67 MEQ/L | CHOLESTEROL [2]: 80 mg/dL | CREATINE PHOSPHOKINASE [2]: 463.67 u/L | CREATININE [2]: 0.29 mg/dL | GLUCOSE [2]: 227.33 mg/dL | LACTATE DEHYDROGENASE [2]: 268 u/L | LIPASE [2]: 9.67 u/L | PHOSPHORUS [2]: 14.17 mg/dL | POTASSIUM [2]: 7.15 MEQ/L | SODIUM [2]: 146.23 MEQ/L | TOTAL BILIRUBIN [2]: 0.13 mg/dL | TOTAL PROTEIN [2]: 6.77 G/DL | URIC ACID [2]: 3.97 mg/dL | ABSOLUTE BASOPHIL [3]: 0 CELLS/uL | ABSOLUTE EOSINOPHIL [3]: 53 CELLS/uL | ABSOLUTE LYMPHOCYTE [3]: 13139.33 CELLS/uL | ABSOLUTE MONOCYTE [3]: 527.33 CELLS/uL | ABSOLUTE SEGMENTED NEUTROPHIL [3]: 647 CELLS/uL | BASOPHIL [3]: 0% | EOSINOPHIL [3]: 0.33% | ERYTHROCYTE COUNT [3]: 5.87 x10E6/uL | HEMATOCRIT [3]: 36.03% | HEMOGLOBIN [3]: 13.4 G/DL | LEUKOCYTE COUNT [3]: 14.37 x10E3/uL | LYMPHOCYTE [3]: 91.67% | MEAN CORPUSCULAR HEMOGLOBIN [3]: 22.8 pg | MEAN CORPUSCULAR HEMOGLOBIN CONCENTRATION [3]: 37.17 G/DL | MEAN CORPUSCULAR VOLUME [3]: 61.33 fL | MONOCYTE [3]: 3.67% | NEUTROPHIL [3]: 4.33% | NUCLEATED RED BLOOD CELLS [3]: 0.33 /100WBC | PLATELET COUNT [3]: 1389.67 x10E3/uL | ALANINE AMINOTRANSFERASE [3]: 28 u/L | ALBUMIN [3]: 4.37 G/DL | ALKALINE PHOSPHATASE [3]: 359.67 u/L | ASPARTATE AMINOTRANSFERASE [3]: 83.67 u/L | BLOOD UREA NITROGEN [3]: 17 mg/dL | CARBON DIOXIDE [3]: 24.67 mmol/L | CHLORIDE [3]: 102.33 MEQ/L | CHOLESTEROL [3]: 63.67 mg/dL | CREATINE PHOSPHOKINASE [3]: 505 u/L | CREATININE [3]: 0.21 mg/dL | GLUCOSE [3]: 173 mg/dL | LACTATE DEHYDROGENASE [3]: 177.33 u/L | LIPASE [3]: 10.33 u/L | PHOSPHORUS [3]: 12.07 mg/dL | POTASSIUM [3]: 6.62 MEQ/L | SODIUM [3]: 143.8 MEQ/L | TOTAL BILIRUBIN [3]: 0.17 mg/dL | TOTAL PROTEIN [3]: 6.3 G/DL | URIC ACID [3]: 2.17 mg/dL
